Test results as given in ChEMBL document CHEMBL5230103, “Hydroxamic acid hybrids as the potential anticancer agents: An Overview” (Eur J Med Chem, 2020).
≈ marks a conversion by molar mass, not a printed value.

Legend:
Histone deacetylase 2 = Histone deacetylase 2 (Homo sapiens, UniProt Q92769); assay: Inhibition of HDAC2 (unknown origin)
PC-3 [1] = assay: Cytotoxicity against human PC-3 cells assessed as inhibition of cell growth by MTT assay; assay type: functional, cell-based
SW-620 = assay: Cytotoxicity against human SW620 cells assessed as inhibition of cell growth by MTT assay; assay type: functional, cell-based
ASPC1 = assay: Cytotoxicity against human ASPC1 cells assessed as inhibition of cell growth by MTT assay; assay type: functional, cell-based
MCF7 [2] = assay: Cytotoxicity against human MCF7 cells assessed as inhibition of cell growth by MTT assay; assay type: functional, cell-based
HCT-116 = assay: Cytotoxicity against human HCT-116 cells assessed as inhibition of cell growth by MTT assay; assay type: functional, cell-based
HepG2 [3] = assay: Cytotoxicity against human HepG2 cells assessed as inhibition of cell growth by MTT assay; assay type: functional, cell-based
MDA-MB-231 = assay: Cytotoxicity against human MDA-MB-231 cells assessed as inhibition of cell growth by MTT assay; assay type: functional, cell-based
A549 = assay: Cytotoxicity against human A549 cells assessed as inhibition of cell growth by MTT assay; assay type: functional, cell-based
Histone deacetylase = assay: Inhibition of HDAC (unknown origin); assay type: protein assay, Homo sapiens
K562 = assay: Cytotoxicity against human K562 cells assessed as inhibition of cell growth by MTT assay; assay type: functional, cell-based
PC-3 [4] = assay: Cytotoxicity against human PC-3 cells assessed as inhibition of cell growth by SRB assay; assay type: functional, cell-based
MV4-11 = assay: Cytotoxicity against human MV4-11 cells assessed as inhibition of cell growth by SRB assay; assay type: functional, cell-based
HL-60 = assay: Antiproliferative activity against human HL-60 cells assessed as inhibition of cell growth by MTT assay; assay type: functional, cell-based
RPMI-8226 = assay: Cytotoxicity against human RPMI-8226 cells assessed as inhibition of cell growth by MTS assay; assay type: functional, cell-based
HepG2 [5] = assay: Cytotoxicity against human HepG2 cells assessed as inhibition of cell growth measured after 72 hrs by MTT assay; assay type: functional, cell-based; settings: HepG2, 72 h
MCF7 [6] = assay: cells; assay type: functional, cell-based; settings: Homo sapiens, MCF7, 72 h
Description: Cytotoxicity against human MCF7 cells assessed as inhibition of cell growth measured after 72 hrs by MTT assay

U2OS = assay: cells; assay type: functional, cell-based; settings: Homo sapiens, 72 h
Description: Cytotoxicity against human U2OS cells assessed as inhibition of cell growth measured after 72 hrs by MTT assay

Histone deacetylase 2, sequence (Q92769 whole entry): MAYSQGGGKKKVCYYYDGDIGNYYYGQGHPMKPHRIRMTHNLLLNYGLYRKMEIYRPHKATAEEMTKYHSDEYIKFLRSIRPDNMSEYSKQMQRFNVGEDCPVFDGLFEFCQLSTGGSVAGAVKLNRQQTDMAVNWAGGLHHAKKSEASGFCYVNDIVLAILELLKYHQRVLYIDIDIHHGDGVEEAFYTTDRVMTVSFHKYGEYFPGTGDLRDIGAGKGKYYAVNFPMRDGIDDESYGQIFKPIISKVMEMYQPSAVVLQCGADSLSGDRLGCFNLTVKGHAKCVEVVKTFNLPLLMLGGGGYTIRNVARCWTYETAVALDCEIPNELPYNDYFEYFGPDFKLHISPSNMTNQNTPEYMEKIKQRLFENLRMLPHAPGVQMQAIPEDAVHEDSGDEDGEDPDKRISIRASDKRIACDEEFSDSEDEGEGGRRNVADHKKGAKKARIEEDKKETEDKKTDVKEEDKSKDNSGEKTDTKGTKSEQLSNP

COc1ccc2c(c1)C1(OCCO1)C(=O)N2CCCCCCC(=O)NO gave an IC50 (Histone deacetylase 2) of 30 nM, an IC50 (PC-3 [1]) of 50 nM and an IC50 (SW-620) of 50 nM. The IC50 (ASPC1) was 50 nM.

Compound O=C(COc1ccc(C(=O)/C=C/c2ccc(F)cc2)cc1)NO has an IC50 (MCF7 [2]) of 620 nM, an IC50 (HCT-116) of 620 nM and an IC50 (HepG2 [3]) of 620 nM.

CC(C)c1ccc(C(C)c2nnc(NC(=O)CCC(=O)NO)s2)cc1 (stereo not given) showed an IC50 (MDA-MB-231) of 14.7 µM, an IC50 (PC-3 [1]) of 14700 nM and an IC50 (A549) of 14.7 µM. For the same compound, the IC50 (Histone deacetylase) was 200 nM and the IC50 (K562) was 14.7 µM.

In the case of CC(C)n1cnc2c(-c3ccc(COCCCCCCC(=O)NO)cc3)nc(N3CCOCC3)nc21, the IC50 (Histone deacetylase) is reported as 278 nM, the IC50 (PC-3 [4]) is reported as 970 nM and the IC50 (MV4-11) is reported as 970 nM.

In the case of O=C(CCC(=O)Nc1nnc(-c2ccc(Cl)cc2)s1)NO, the IC50 (MDA-MB-231) is reported as 14.7 µM, the IC50 (PC-3 [1]) is reported as 14700 nM and the IC50 (A549) is reported as 14.7 µM. For the same compound, the IC50 (Histone deacetylase) was 200 nM and the IC50 (K562) was 14.7 µM.

O=C(CCCCCCC(=O)Nc1nnc(-c2cccs2)s1)NO gave an IC50 (PC-3 [1]) of 880 nM, an IC50 (MCF7 [2]) of 880 nM and an IC50 (SW-620) of 880 nM. It also gave an IC50 (ASPC1) of 880 nM.

O=C(CCCCCCN1C(=O)C2(OCCO2)c2cccc(Cl)c21)NO was tested, and the IC50 (Histone deacetylase 2) was 30 nM, the IC50 (PC-3 [1]) was 50 nM and the IC50 (SW-620) was 50 nM. The IC50 (ASPC1) was 50 nM.

For CC(C)n1cnc2c(-c3cccc(COCCCCCC(=O)NO)c3)nc(N3CCOCC3)nc21, the IC50 (Histone deacetylase) was 35 nM, the IC50 (PC-3 [4]) was 160 nM and the IC50 (MV4-11) was 160 nM.

For CC(C)n1cnc2c(-c3ccc(COCCCCCC(=O)NO)cc3)nc(N3CCOCC3)nc21, the IC50 (Histone deacetylase) was 278 nM, the IC50 (PC-3 [4]) was 970 nM and the IC50 (MV4-11) was 970 nM.

CC(C)n1cnc2c(-c3ccc(OCCCCC(=O)NO)cc3)nc(N3CCOCC3)nc21 was tested, and the IC50 (Histone deacetylase) was 278 nM, the IC50 (PC-3 [4]) was 970 nM and the IC50 (MV4-11) was 970 nM.

In the case of C[C@H]1[C@@H](NC(=O)CCCCC(=O)NO)O[C@@H]2O[C@@]3(C)CC[C@H]4[C@H](C)CC[C@@H]1[C@@]24OO3, the IC50 (HL-60) is reported as 1.28 µg/mL (≈ 3 µM), the IC50 (MCF7 [2]) is reported as 1.28 µg/mL and the IC50 (HepG2 [3]) is reported as 1.28 µg/mL.

Compound C[C@H]1[C@@H](NC(=O)CCCCCCCC(=O)NO)O[C@@H]2O[C@@]3(C)CC[C@H]4[C@H](C)CC[C@@H]1[C@@]24OO3 has an IC50 (HL-60) of 1.28 µg/mL (≈ 2.73 µM), an IC50 (MCF7 [2]) of 1.28 µg/mL and an IC50 (HepG2 [3]) of 1.28 µg/mL.

CCCCCSc1ncc(C(=O)NO)c(N(Cc2ccccc2)S(=O)(=O)c2ccc(OC)cc2)n1 was tested, and the IC50 (RPMI-8226) was > 7.8 µM.

CC(C)n1cnc2c(-c3ccc(OCCCCCCCC(=O)NO)cc3)nc(N3CCOCC3)nc21 showed an IC50 (Histone deacetylase) of 278 nM, an IC50 (PC-3 [4]) of 970 nM and an IC50 (MV4-11) of 970 nM.

For C[C@H]1[C@@H](NC(=O)CCCC(=O)NO)O[C@@H]2O[C@@]3(C)CC[C@H]4[C@H](C)CC[C@@H]1[C@@]24OO3, the IC50 (HL-60) was 1.28 µg/mL (≈ 3.1 µM), the IC50 (MCF7 [2]) was 1.28 µg/mL and the IC50 (HepG2 [3]) was 1.28 µg/mL.

For O=C(COc1ccc(C(=O)/C=C/c2ccccc2)cc1)NO, the IC50 (MCF7 [2]) was 620 nM, the IC50 (HCT-116) was 620 nM and the IC50 (HepG2 [3]) was 620 nM.

CC(C)n1cnc2c(-c3ccc(OCCCCCC(=O)NO)cc3)nc(N3CCOCC3)nc21 showed an IC50 (Histone deacetylase) of 278 nM, an IC50 (PC-3 [4]) of 970 nM and an IC50 (MV4-11) of 970 nM.

O=C(/C=C/c1ccc(CN2C(=O)C3(OCCO3)c3ccccc32)cc1)NO was tested, and the IC50 (PC-3 [1]) was > 3050 nM, the IC50 (SW-620) was > 3050 nM and the IC50 (ASPC1) was > 3050 nM.

With COc1ccc(/C=C/C(=O)c2ccc(OCC(=O)NO)cc2)cc1 the IC50 (MCF7 [2]) was 620 nM, the IC50 (HCT-116) was 620 nM and the IC50 (HepG2 [3]) was 620 nM.

C[C@H]1[C@@H](NC(=O)CCCCCC(=O)NO)O[C@@H]2O[C@@]3(C)CC[C@H]4[C@H](C)CC[C@@H]1[C@@]24OO3 gave an IC50 (HL-60) of 1.28 µg/mL (≈ 2.91 µM), an IC50 (MCF7 [2]) of 1.28 µg/mL and an IC50 (HepG2 [3]) of 1.28 µg/mL.

Work on Cc1ccc(-c2nnc(NC(=O)CCCCCCC(=O)NO)s2)o1 yielded an IC50 (PC-3 [1]) of 880 nM, an IC50 (MCF7 [2]) of 880 nM and an IC50 (SW-620) of 880 nM. For the same compound, the IC50 (ASPC1) was 880 nM.

O=C(CCCn1cc(CN2C(=O)/C(=N\O)c3cc(Br)ccc32)nn1)NO showed an IC50 (Histone deacetylase 2) of 910 nM.

For CCCCCCSc1ncc(C(=O)NO)c(N(Cc2ccccc2)S(=O)(=O)c2ccc(OC)cc2)n1, the IC50 (RPMI-8226) was > 7.8 µM.

With COc1cc(NC(C)CCCCCCNC(=O)CCC(=O)NO)c2ncccc2c1 (stereo not given) the IC50 (HepG2 [5]) was 1600 nM, the IC50 (MCF7 [6]) was 1600 nM and the IC50 (U2OS) was 1600 nM.

Compound CC(C)n1cnc2c(-c3cccc(OCC(=O)NO)c3)nc(N3CCOCC3)nc21 has an IC50 (Histone deacetylase) of 35 nM, an IC50 (PC-3 [4]) of 160 nM and an IC50 (MV4-11) of 160 nM.

With CC(C)n1cnc2c(-c3cccc(OCCCCCC(=O)NO)c3)nc(N3CCOCC3)nc21 the IC50 (Histone deacetylase) was 35 nM, the IC50 (PC-3 [4]) was 160 nM and the IC50 (MV4-11) was 160 nM.
